Laboratory results published in paper PMC7770183, “Enhanced Bioavailability of Boswellic Acid by Piper longum: A Computational and Pharmacokinetic Study” (Frontiers in Pharmacology, 2020).
Where two headings read alike, the source gives them in different places.

Test: Pharmacokinetic study of β-boswellic acid in rabbits with and without Piper longum extract (serum, HPLC-UV)
Type: in vivo
Conditions: for AUC(0-t) / AUC(0-inf) / Cmax / Tmax / Vd/F / k el: male, rabbit, serum, po; for AUC(0-t): oral capsule; for Vd/F: read-out: Apparent volume of distribution (Vd/F); for k el: read-out: Ke (converted)
[1] = 20 mg, oral, Control: 20 mg of BA alone
[2] = Test I: 20 mg of BA + 2.5 mg of PL
[3] = Test II: 20 mg of BA + 10 mg of PL

AUC(0-t) (20 mg, Control: 20 mg of β-boswellic acid (BA) alone): 766 ± 22.8 ng·h/mL | AUC(0-inf) [1]: 772 ± 22.1 ng·h/mL | Cmax [1]: 260 ± 21.3 ng/mL | Tmax [1]: 2 ± 0.18 h | Vd/F [1]: 96 ± 14 L | k el [1]: 0.000131 s⁻¹ | AUC(0-inf) [2]: 2660 ± 102 ng·h/mL | Cmax [2]: 321.4 ± 2.7 ng/mL | Tmax [2]: 2 ± 0.22 h | Vd/F [2]: 43.2 ± 7 L | k el [2]: 5.24e-05 s⁻¹ | AUC(0-inf) [3]: 2850 ± 251 ng·h/mL | Cmax [3]: 359 ± 12 ng/mL | Tmax [3]: 3 ± 0.26 h | Vd/F [3]: 67.5 ± 11 L | k el [3]: 3.07e-05 s⁻¹ | AUC(0-t) (Test I: 20 mg of BA + 2.5 mg of adjuvant (PL)): 1890 ± 109 ng·h/mL | AUC(0-t) (Test II: 20 mg of BA + 10 mg of adjuvant (PL)): 2210 ± 115 ng·h/mL | Ka (oral, Control: 20 mg of BA alone): 0.6168 ± 0.16 h⁻¹ | Ka (oral, Test I: 20 mg of BA + 2.5 mg of PL): 0.740 ± 0.22 h⁻¹ | Ka (oral, Test II: 20 mg of BA + 10 mg of PL): 0.6112 ± 0.17 h⁻¹ | time of complete elimination from serum (oral, β-boswellic acid alone): 9 h
Structure (SMILES): C[C@H]1[C@H](C)CC[C@]2(C)CC[C@]3(C)C(=CC[C@@H]4[C@@]5(C)CC[C@@H](O)[C@](C)(C(=O)O)[C@@H]5CC[C@]43C)[C@H]12 [β-boswellic acid, 3α-hydroxyurs-12-en-24-oic acid]
